Read-outs that look alike come from different tables or passages of the source. Where a SMILES comes first, the peptide text is derived from it. Where no end group is shown, it is not given here.
Columns and labels:
[1] = target: recombinant alpha-glucosidase from Saccharomyces cerevisiae, which is a maltase (Saccharomyces cerevisiae, UniProt P53341); experiment: biochemical; settings: for inhibition of alpha-glucosidase in words: relative to the AP and VAP peptides; for median inhibitory concentration of alpha-glucosidase (maltase), times lower relative to the reference inhibitors: relative to acarbose and miglitol
Experimental: The synthetic peptides were supplied by GENOSPHERE Biotechnologies.
The alpha-glucosidase used is the recombinant alpha-glucosidase from Saccharomyces cerevisiae, which is a maltase.
The samples were solubilized beforehand in deionized water containing 10% of DMSO (dimethyl sulphoxide).
After incubation at 37° C. for 20 minutes, 20 μL of the substrate p-NPG (p-nitrophenyl glucopyranoside) at 2.5 mM (prepared in the same buffer as mentioned above) was added to the mixture in order to start the reaction.
The reaction medium was incubated for 30 minutes at 37° C. and then the reaction was stopped by adding 80 μL of a solution of sodium carbonate (Na2CO3) at 0.3M.
The quantity of product formed (p-nitrophenyl (p-NP) of yellow colour) was measured by spectrophotometry (absorbance at 410 nm, VersaMax™, Microplate Reader).
The test was carried out in a 96-well microplate.
All the inhibition tests were carried out in triplicate.
The percentage inhibition was calculated from the following equation: […]
OD sample assay corresponds to the optical density obtained for the mixture “sample+enzyme+substrate”.
OD assay blank corresponds to the optical density obtained for the mixture “sample+buffer”.
OD control assay corresponds to the optical density obtained for the mixture “buffer+enzyme+substrate”.
OD control blank corresponds to the optical density obtained for the buffer.

[2] = target: T1, recombinant alpha-glucosidase from S. cerevisiae (maltase) (Saccharomyces cerevisiae, UniProt P53341); experiment: biochemical; assay type: biochemical; settings: for IC50: Table 2; for inhibition of α-glucosidase in words: relative to acarbose, miglitol and voglibose
T1 construct: purchased Sigma G0660-750UN
Experimental: 20 μl of α-glucosidase in 0.1M potassium phosphate buffer (pH 6.8) at 1.6 U/ml is mixed with 8 μl of the peptide sample or of the reference inhibitor at different concentrations.
The samples are solubilized beforehand in milliQ water containing 10% DMSO (available from Sigma under reference 472301).
After preincubation at 37° C. for 15 min, 20 μl of the substrate p-NPG at 20 mM in 0.1M potassium phosphate buffer (pH 6.8) is added to the mixture in order to start the reaction.
The reaction medium is incubated for 30 min at 37° C. and then the reaction is stopped by adding 80 μl of a 1M solution of sodium carbonate (Na2CO3).
The quantity of product formed (p-nitrophenyl) is measured by reading the absorbance at 410 nm using the Fluostar Omega spectrophotometer (BMG Labtech, Germany).
(§1) All the inhibition tests are carried out in triplicate.
The enzyme used is recombinant alpha-glucosidase from S. cerevisiae (it is a maltase available from Sigma, under reference G0660-750UN).
The substrate used is 4-nitrophenyl α-D-glucopyranoside (p-NPG) (available from Sigma under reference N1377).

DPP-IV from pig kidney = target: T2, DPP-IV from pig kidney (Sus scrofa, UniProt P22411); experiment: In-vitro determination of the inhibition of DPP-IV by synthetic peptides (Example 14); assay type: biochemical; settings: for IC50 / inhibitory activity of DPP-IV (IC50) in mmol/l: Table 13, substrate Gly-L-Pro-p-nitroanilide, pH 8.0, 37° C.; for IC50: read-out: inhibitory activity of DPP-IV (IC50); for inhibition of DPP-IV in words: relative to the reference Diprotin A
T2 construct: The enzyme used is DPP-IV from pig kidney; purchased Sigma D7052; host or cells: pig kidney
Experimental: The inhibitory activity of synthetic peptides can be measured in vitro according to the following protocol:
25 μl of the substrate Gly-L-Pro-p-nitroanilide in 0.1 M Tris-HCL buffer (pH 8.0) at 1.6 mM is mixed with 25 μl of the peptide sample or of reference inhibitor at different concentrations. The samples are solubilized beforehand in Tris HCL buffer (pH8.0).
After preincubation at 37° C. for 10 min, 50 μl of the DPP-IV enzyme at a concentration of 0.01 U/ml in 0.1 M Tris-HCL buffer (pH 8.0) is added to the mixture in order to start the reaction. The reaction medium is incubated for 60 min at 37° C. and then the reaction is stopped by adding 100 μl of 1M sodium acetate buffer (pH4).
The quantity of product formed (p-nitroanilide) is measured by reading the absorbance at 385 nm using the Fluostar Omega spectrophotometer (BMG Labtech, Germany).
as §1
The substrate used is Gly-L-Pro-p-nitroanilide hydrochloride (available from Sigma under reference G0513).
The enzyme used is DPP-IV from pig kidney (available from Sigma under reference D7052).
The reference inhibitor is Diprotin A, corresponding to the Ile-Pro-Ile tripeptide (available from Sigma under reference 19759).

α-glucosidase = experiment: In-vitro determination of the type of inhibition (Lineweaver-Burk, hydrolysis of p-NPG); assay type: biochemical; settings: straight lines intersect at 1/Vmax
Experimental: The three straight lines are as follows: • Filled circle: […] • Empty circle: test in the presence of 50 μM of AP • Filled triangle: test in the presence of 100 μM of AP
Based on the initial rates, the Lineweaver-Burk representations for each concentration of inhibitor LKP were shown and the type of inhibition was determined. The synthetic LKP peptide was supplied by GENOSPHERE Biotechnologies.
Based on the initial rates, the Lineweaver-Burk representations for each concentration of inhibitor AP were shown and the type of inhibition was determined.

db/db mice = experiment: Oral test of tolerance to maltose in vivo in db/db mice (Example 5); settings: maltose 2 g/kg; for effect on the glycaemia of the mice during the test of tolerance to maltose: alone or in combination
Experimental: The inhibitory activity of the AP and VAP peptides and the effect of the AP and VAP peptides on the glycaemic response can be measured in an oral test of tolerance to maltose in vivo in db/db mice that have a glucose intolerance of genetic origin. The mice are 4 weeks of age and each mouse is its own control. A dose of maltose (2 g/kg) was used in order to cause a temporary increase in glycaemia. Four (4) oral tests of tolerance to maltose (2 g/kg) were carried out on each mouse with a minimum interval of 48 h. The order was determined so as to cancel a potentially confounding effect of a change in body composition of the mice during the 3 study weeks. […] The maltose and the test products were administered directly by the oral route (gastric gavage), diluted in 0.9% saline solution. […] • Main Criterion: […] […] The secondary criteria for evaluation were: […] The AUC (area under the curve) was estimated by the trapezium method.

saccharase = saccharase (Homo sapiens, UniProt P14410); settings: in particular saccharase; cited from earlier work
[3] = Table 1, enzyme 0.2 U/mL, p-NPG 2.5 mM, pH 6.8, 37° C.
[4] = Table 1, enzyme 0.2 U/mL, p-NPG 2.5 mM, pH 6.8, 37° C., read-out: Inhibitory activity on α-glucosidase (IC50)
[5] = enzyme 1.6 U/ml, p-NPG 20 mM, pH 6.8, 37° C., read-out: Inhibitory activity on α-glucosidase (IC50)
[6] = read-out: Inhibitory activity on α-glucosidase (IC50) in mg/ml (converted)
[7] = Inhibitory activity on α-glucosidase (IC50) in mg/ml
[8] = Inhibitory activity on α-glucosidase (IC50) in mmol/l, enzyme 1.6 U/ml, p-NPG 20 mM, pH 6.8, 37° C.

T2 sequence (P22411 whole entry): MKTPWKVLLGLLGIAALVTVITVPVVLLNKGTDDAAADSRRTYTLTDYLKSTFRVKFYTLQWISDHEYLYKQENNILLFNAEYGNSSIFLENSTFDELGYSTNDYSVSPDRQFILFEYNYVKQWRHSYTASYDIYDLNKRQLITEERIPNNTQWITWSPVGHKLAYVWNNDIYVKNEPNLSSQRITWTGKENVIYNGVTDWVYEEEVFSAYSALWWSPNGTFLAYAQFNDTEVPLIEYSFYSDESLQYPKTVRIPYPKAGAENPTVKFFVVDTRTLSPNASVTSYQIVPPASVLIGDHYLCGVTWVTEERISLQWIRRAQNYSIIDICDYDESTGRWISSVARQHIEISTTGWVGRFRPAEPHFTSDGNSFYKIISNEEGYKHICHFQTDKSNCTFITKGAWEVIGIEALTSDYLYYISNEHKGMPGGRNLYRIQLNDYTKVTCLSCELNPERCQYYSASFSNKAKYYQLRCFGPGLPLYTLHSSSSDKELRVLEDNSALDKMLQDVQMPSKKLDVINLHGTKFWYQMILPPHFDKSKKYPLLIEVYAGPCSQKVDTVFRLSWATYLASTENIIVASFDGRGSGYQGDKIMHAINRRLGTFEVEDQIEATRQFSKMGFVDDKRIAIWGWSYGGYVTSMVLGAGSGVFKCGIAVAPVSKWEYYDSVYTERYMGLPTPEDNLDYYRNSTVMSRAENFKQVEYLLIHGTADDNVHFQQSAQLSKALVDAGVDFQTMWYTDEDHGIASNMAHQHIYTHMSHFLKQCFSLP
T1 sequence (P53341 whole entry): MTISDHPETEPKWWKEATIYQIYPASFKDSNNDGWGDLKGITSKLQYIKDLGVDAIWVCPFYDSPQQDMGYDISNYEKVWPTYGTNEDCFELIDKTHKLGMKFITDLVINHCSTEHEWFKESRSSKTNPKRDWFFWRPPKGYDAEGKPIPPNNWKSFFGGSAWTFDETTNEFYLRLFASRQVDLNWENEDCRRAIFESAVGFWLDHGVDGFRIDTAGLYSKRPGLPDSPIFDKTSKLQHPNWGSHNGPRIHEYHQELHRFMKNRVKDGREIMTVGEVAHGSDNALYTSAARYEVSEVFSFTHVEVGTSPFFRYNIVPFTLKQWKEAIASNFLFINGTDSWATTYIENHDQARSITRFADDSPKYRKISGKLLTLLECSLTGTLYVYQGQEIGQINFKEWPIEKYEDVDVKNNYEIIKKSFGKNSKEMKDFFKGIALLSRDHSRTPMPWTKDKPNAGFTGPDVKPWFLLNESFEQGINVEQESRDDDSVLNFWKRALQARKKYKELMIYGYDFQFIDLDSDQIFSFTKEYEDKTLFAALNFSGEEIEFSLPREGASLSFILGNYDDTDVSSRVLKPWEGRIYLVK
Sequence of recombinant alpha-glucosidase from Saccharomyces cerevisiae, which is a maltase (P53341 whole entry): as above
Sequence of saccharase (P14410 whole entry): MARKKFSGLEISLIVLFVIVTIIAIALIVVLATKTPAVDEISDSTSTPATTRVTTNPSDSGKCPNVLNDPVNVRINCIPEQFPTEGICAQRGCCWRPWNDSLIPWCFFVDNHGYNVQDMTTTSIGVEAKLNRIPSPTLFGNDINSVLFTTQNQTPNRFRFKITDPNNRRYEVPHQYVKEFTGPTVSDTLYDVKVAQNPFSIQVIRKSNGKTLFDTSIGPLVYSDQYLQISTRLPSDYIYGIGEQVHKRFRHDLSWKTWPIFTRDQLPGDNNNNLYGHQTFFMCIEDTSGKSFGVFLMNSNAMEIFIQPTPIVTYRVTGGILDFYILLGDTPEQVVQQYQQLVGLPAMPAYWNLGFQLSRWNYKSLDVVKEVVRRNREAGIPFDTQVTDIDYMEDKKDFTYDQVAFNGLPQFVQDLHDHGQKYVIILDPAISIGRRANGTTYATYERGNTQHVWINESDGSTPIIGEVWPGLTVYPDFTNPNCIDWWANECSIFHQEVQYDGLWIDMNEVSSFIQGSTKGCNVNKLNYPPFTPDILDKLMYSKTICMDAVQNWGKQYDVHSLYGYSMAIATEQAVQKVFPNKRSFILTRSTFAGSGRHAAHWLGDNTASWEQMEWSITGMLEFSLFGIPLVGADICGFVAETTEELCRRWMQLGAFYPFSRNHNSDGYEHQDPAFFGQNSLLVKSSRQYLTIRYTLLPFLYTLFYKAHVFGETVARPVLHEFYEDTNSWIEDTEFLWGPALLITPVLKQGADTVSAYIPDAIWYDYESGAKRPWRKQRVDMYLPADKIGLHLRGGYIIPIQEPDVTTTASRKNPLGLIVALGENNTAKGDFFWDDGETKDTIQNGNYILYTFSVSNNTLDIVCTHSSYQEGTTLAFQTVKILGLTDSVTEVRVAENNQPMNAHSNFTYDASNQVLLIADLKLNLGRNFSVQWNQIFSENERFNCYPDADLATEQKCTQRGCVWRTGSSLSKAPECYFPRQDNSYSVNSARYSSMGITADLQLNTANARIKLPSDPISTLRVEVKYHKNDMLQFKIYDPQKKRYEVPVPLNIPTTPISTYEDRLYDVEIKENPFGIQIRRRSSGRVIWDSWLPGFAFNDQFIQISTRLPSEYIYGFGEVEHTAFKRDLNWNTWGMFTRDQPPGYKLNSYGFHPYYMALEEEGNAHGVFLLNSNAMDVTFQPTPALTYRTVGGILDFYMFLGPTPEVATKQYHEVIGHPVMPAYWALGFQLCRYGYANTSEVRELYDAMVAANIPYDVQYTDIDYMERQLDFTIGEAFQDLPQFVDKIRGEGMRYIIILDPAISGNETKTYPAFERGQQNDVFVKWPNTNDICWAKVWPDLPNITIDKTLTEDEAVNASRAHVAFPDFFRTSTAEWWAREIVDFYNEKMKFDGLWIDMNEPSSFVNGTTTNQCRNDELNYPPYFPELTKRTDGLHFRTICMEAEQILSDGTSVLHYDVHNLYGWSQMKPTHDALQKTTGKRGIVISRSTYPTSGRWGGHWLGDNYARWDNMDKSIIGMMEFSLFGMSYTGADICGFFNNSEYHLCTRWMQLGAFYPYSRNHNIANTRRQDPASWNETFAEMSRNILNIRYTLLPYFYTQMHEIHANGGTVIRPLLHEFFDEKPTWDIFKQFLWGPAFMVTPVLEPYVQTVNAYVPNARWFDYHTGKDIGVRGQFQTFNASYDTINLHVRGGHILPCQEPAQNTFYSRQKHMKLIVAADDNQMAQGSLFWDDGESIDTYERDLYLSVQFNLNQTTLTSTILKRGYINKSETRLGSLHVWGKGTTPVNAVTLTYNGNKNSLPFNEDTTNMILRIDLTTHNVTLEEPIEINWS

VIY: peptide sequence VIY of Table 1
Inhibitory activity on α-glucosidase (IC50) in mM [1, 3]: No inhibition

NCCCC[C@H](N)C(=O)N[C@@H](Cc1c[nH]c2ccccc12)C(=O)O [KW] (H-Lys-Trp-OH; N-terminus and C-terminus assumed)
IC50 [1, 4]: 12.8 ± 0.98 mM | inhibition of alpha-glucosidase in words [1]: weak inhibitors | IC50 [2, 5]: 12.8 ± 0.98 mM | IC50 [2, 6]: 12.7 mM

SAPLRVY [SAPLRVY]
IC50 (DPP-IV from pig kidney): 1.06 ± 0.031 mM | IC50 [2, 7]: 1.76 mM | IC50 [2, 8]: 1.76 ± 0.18 mM

C[C@H](N)C(=O)N1CCC[C@H]1C(=O)O [AP] (H-Ala-Pro-OH; N-terminus and C-terminus assumed)
type of inhibition of the degradation of p-NPG (α-glucosidase): competitive | IC50 (DPP-IV from pig kidney): 4.78 ± 0.284 mM | inhibition of DPP-IV in words (DPP-IV from pig kidney): very weakly | IC50 ([1]; IC50 on α-glucosidase): 0.0136 ± 0.00092 mM | median inhibitory concentration of alpha-glucosidase (maltase), times lower relative to the reference inhibitors [1]: approximately 900 times | IC50 [2, 7]: 0.0134 mM | inhibition of α-glucosidase in words [2]: strongly inhibit | maximum glycaemia value subtracted from the resting value (ΔCmax glycaemia) (db/db mice; 500 mg/kg by gastric gavage, resting value 150 mg/dl): approximately 280 mg/dl | effect on the glycaemia of the mice during the test of tolerance to maltose (db/db mice; 500 mg/kg): lower the glycaemia | effect of treatment on the maximum glycaemia value (db/db mice; 500 mg/kg): significant effect | effect on the glucose AUC during the oral test of tolerance to maltose (db/db mice; 500 mg/kg, 0-120 minutes): beneficial effect

CC[C@H](C)[C@H](N)C(=O)N[C@@H](Cc1ccc(O)cc1)C(=O)O [IY] (H-Ile-Tyr-OH; N-terminus and C-terminus assumed)
IC50 [1, 4]: 12.3 mM | inhibition of alpha-glucosidase in words [1]: weak inhibitors | IC50 [2, 5]: 12.3 ± 0.25 mM | IC50 [2, 6]: 12.2 mM

AVPYQR [AVPYQR]
IC50 (DPP-IV from pig kidney): 5.7 ± 0.08 mM | IC50 [2, 7]: 3.19 mM

CC(C)[C@H](N)C(=O)N[C@@H](Cc1ccc(O)cc1)C(=O)O [VY] (H-Val-Tyr-OH; N-terminus and C-terminus assumed)
inhibitory activity of DPP-IV (IC50) in mmol/l (DPP-IV from pig kidney): No inhibition | inhibition of alpha-glucosidase in words [1]: weak inhibitors | IC50 [2, 6]: 2.7 mM

AVIPIPT
inhibitory activity of DPP-IV (IC50) in mmol/l (DPP-IV from pig kidney): No inhibition

CC(C)[C@H](N)C(=O)N[C@@H](C)C(=O)N1CCC[C@H]1C(=O)NCC(=O)O [VAPG] (H-VAPG-OH; N-terminus and C-terminus assumed)
IC50 (DPP-IV from pig kidney): 2.27 ± 0.131 mM | IC50 [2, 7]: 4.05 mM

CC(C)C[C@H](NC(=O)[C@@H]1CCCN1C(=O)CN)C(=O)O [GPL] (H-Gly-Pro-Leu-OH; N-terminus and C-terminus assumed)
IC50 (DPP-IV from pig kidney): 1.85 ± 0.298 mM | IC50 [1, 4]: 4.82 ± 0.15 mM | inhibition of alpha-glucosidase in words [1]: weak inhibitors | IC50 [2, 5]: 4.82 ± 0.15 mM | IC50 [2, 6]: 4.81 mM

OCCN1C[C@H](O)[C@@H](O)[C@H](O)[C@H]1CO [Miglitol, miglitol, reference compound]
mode of inhibition of alpha-glucosidase (saccharase): competitively and reversibly | IC50 [1, 4]: 39 ± 0.96 mM | IC50 [2, 7]: 37.5 mM | IC50 [2, 8]: 37.5 ± 0.69 mM

VAPFPEV [VAPFPEV]
IC50 (DPP-IV from pig kidney): 1.184 ± 0.008 mM | IC50 [2, 7]: 2.68 mM

CC(C)[C@H](N)C(=O)N[C@@H](C)C(=O)N1CCC[C@H]1C(=O)O [VAP] (H-Val-Ala-Pro-OH; N-terminus and C-terminus assumed)
IC50 (DPP-IV from pig kidney): 4.82 ± 2.3 mM | inhibition of DPP-IV in words (DPP-IV from pig kidney): very weakly | IC50 ([1]; read-out: IC50 on α-glucosidase): 0.02 ± 0.00021 mM | median inhibitory concentration of alpha-glucosidase (maltase), times lower relative to the reference inhibitors [1]: approximately 600 times | IC50 [2, 6]: 0.02 mM | inhibition of α-glucosidase in words [2]: strongly inhibit | effect on the glycaemia of the mice during the test of tolerance to maltose (db/db mice; 500 mg/kg): lower the glycaemia

VGVAPG [VGVAPG]
IC50 (DPP-IV from pig kidney): 10.7 ± 0.769 mM | IC50 [2, 7]: 4.58 mM | IC50 [2, 8]: 4.59 ± 0.06 mM

AKK: synthetic peptide of sequence AKK
Inhibitory activity on α-glucosidase (IC50) in mM [1, 3]: No inhibition

NCCCC[C@H](N)C(=O)N[C@@H](Cc1ccc(O)cc1)C(=O)O [KY]
inhibitory activity of DPP-IV (IC50) in mmol/l (DPP-IV from pig kidney): No inhibition | IC50 [1, 4]: 10.96 ± 0.1 mM | inhibition of alpha-glucosidase in words [1]: weak inhibitors | IC50 [2, 5]: 10.96 ± 0.1 mM | IC50 [2, 6]: 10.9 mM

CC(C)C[C@H](N)C(=O)N[C@@H](CCCCN)C(=O)N1CCC[C@H]1C(=O)O [LKP] (H-Leu-Lys-Pro-OH; N-terminus and C-terminus assumed)
type of inhibition of the degradation of p-NPG (α-glucosidase): competitive | IC50 ([1]; Inhibitory activity on α-glucosidase (IC50) in mM, Table 1, enzyme 0.2 U/mL, p-NPG 2.5 mM, pH 6.8, 37° C.): 7.11 ± 0.2 mM | inhibition of alpha-glucosidase in words [1]: weak inhibitors | IC50 [2, 7]: 7.1 mM | IC50 [2, 8]: 7.11 ± 0.2 mM

— US10500245B2, “Compositions for preventing and/or treating pathological conditions associated with alpha-glucosidase” (UNIVERSITE DE LA ROCHELLE, priority 2014, dated 2019)
